Measurements: publication PMC4184853, “Biohybrid Polymer-Antimicrobial Peptide Medium against Enterococcus faecalis” (PLoS ONE, 2014)
Like-named read-outs stand apart in the source and are kept apart here. Blank lines part the entries; values can stand above or below the compound they belong to. Non-standard residues stand in square brackets, D forms with d. Residues, ends and D or L forms follow the SMILES beside them. *: point of attachment. Palmitoyl = CCCCCCCCCCCCCCCC(=O)*

What was measured:
Format in all cases: cell-based, Enterococcus faecalis
E. faecalis (ATCC #v583) [1] = test system: E. faecalis (ATCC #v583)
Method: (§1) E. faecalis (ATCC #v583), was cultured overnight in 5 ml brain-heart infusion (BHI) (Difco, Detroit, MI, USA) broth supplemented with 2 mg/ml vancomycin (Sigma-Aldrich), at 37°C under aerobic conditions. The top 4 ml were transferred to a fresh test tube and the optical density (OD) was determined according to the specific experiment.
(§2) The antibacterial activity of the peptides was examined using the microdilution assay. Briefly, the bacterial suspension (at OD 0.3) was diluted at a ratio of 1∶1000. Aliquots of 150 µl of bacterial suspension were added to 50 µl of peptide dilutions in phosphate buffered saline (PBS) (Sigma-Aldrich) (in triplicate for each concentration) in a 96-well plate (Nunc 96 microtiter plates, Roskilde, Denmark). The optical density (595 nm) in each well was recorded every 20 min using a microplate reader (VERSAmax tunable microplate reader, molecular devices, Sunnyvale, CA, USA) at 37°C for 18–24 hrs. The minimal inhibitory concentration (MIC) was determined as the concentration which inhibited visible growth after 18–24 hrs.

E. faecalis biofilm [2] = assay: Bacterial vitality in biofilm, live/dead staining with confocal microscopy; settings: 72 hrs contact during biofilm formation
Method: (§3) Antibiofilm activity was tested on E. faecalis biofilms grown for 72 hrs. Biofilm was formed in microtiter plates (24 well plates for the ATP bioluminescence assay and 96 well plates for the crystal violet biomass assay and confocal laser spectroscopy). Saliva was collected from one donor and DL-Dithiolthreitol (DTT) (Thermo Scientific, Abu-Gosh, Israel) was added to 2.5 mM. The suspension was kept at 4°C for 10 min and then centrifuged for 15 min at 6,500×g. The supernatant was transferred to a fresh sterile tube and diluted to 25% with sterile double distilled water (DDW). The diluted saliva was disinfected using a 0.2 µm vacuum-driven filter (0.22 µm, […], Jet biofil, Belgium). […] Bacterial metabolism in the attached biofilm was assessed using ATP bioluminescence. Biofilm mass was measured using crystal violet as described below.
Confocal laser scanning microscopy (CLSM) was used to explore the vitality of bacteria in the different depth layers of the biofilm. […] To read the results directly, the wells were coated with emulsion oil to prevent dehydration. Fluorescence emission was detected using a Zeiss LSM 410 confocal laser scanning microscope (Carl Zeiss Microscopy, Jena, Germany). Red fluorescence was measured at 630 nm and green fluorescence at 520 nm; objective lenses: x60/oil, 1.4 numerical aperture. […]

E. faecalis (ATCC #v583) [3] = assay: Growth curves with soluble peptide: percent growth reduction and generation time; settings: concentrations below 5 µg/ml
Method: as §1
as §2, with “Aliquots of 150 µl of bacterial suspension were added to 50 µl of peptide dilutions in phosphate buffered saline (PBS) (Sigma-Aldrich) (in triplicate for each concentration) in a 96-well plate (Nunc 96 microtiter plates, Roskilde, Denmark).” left out
The presented data are the mean and standard deviation of triplicates of a representative experiment repeated three times. The growth mean, and multiple comparisons of growth inhibition by AMP (compared with the growth of untreated bacteria) were calculated from each growth curve using Student’s t-test. […]
Figure 1 E. faecalis growth is inhibited by C16-KGGK but not by hBD3. Growth of E. faecalis was measured (see Materials and Methods) in the presence of increasing concentrations of hBD3 (A) or of the lipopeptide KGGK (B). […]

E. faecalis biofilm [4] = assay: Antibiofilm activity, ATP bioluminescence; settings: biofilm exposed 72 hrs, 24 well plates; compared with untreated E. faecalis
Method: as §3
Bacterial killing was evaluated by measuring intracellular ATP levels, an energy parameter commonly used as an indicator of cell injury and viability. […] ATP levels were determined using an ATP bioluminescence assay kit (CLS 2, Roch Diagnostics, Mannheim, Germany). In a 96 microtiter plate designed for luminescence assay (Thermo Scientific, NUNC, 96-well optical Btm Plt white, Rochester, NY, USA) a 100 µl volume of the samples was added to 6 wells for each tested group. […]

E. faecalis biofilms = assay: Antibiofilm activity, crystal violet biomass assay; settings: biofilm grown 72 hrs in saliva-coated 96 well plates in presence of test material
Method: as §3
The total biofilm yield was assessed using crystal violet staining as follows. […] The acetic acid was transferred to wells of a new 96-well microtiter plate that was placed in a microplate reader and absorbance (OD595 nm) was measured.
Figure 3 Effect of the antimicrobial peptides on the development of E. faecalis biofilms. […] The biofilm was stained with 1% crystal violet measured at OD 595 nm (see Materials and Methods). […]

- MIC (E. faecalis (ATCC #v583) [1]; planktonic E. faecalis ATCC v583, BHI, 37°C, 18–24 hrs, OD 595 nm, triplicate per concentration): > 20 µg/mL
Compound: GIINTLQKYYCRVRGGRCAVLSCLPKEEQIGKCSTRGRKCCRRKK [hBD3, Human recombinant β-defensin 3 obtained from PeproTech, reference compound]

- MIC (E. faecalis (ATCC #v583) [1]; ATCC #v583): >25 µg/mL
Compound: CC(C)C[C@H](NC(=O)[C@H](CC(C)C)NC(=O)[C@@H](CCCCN)NC(=O)[C@H](CC(C)C)NC(=O)[C@H](CC(C)C)NC(=O)[C@H](CCCCN)NC(=O)[C@@H](CCCCN)NC(=O)[C@@H](CC(C)C)NC(=O)[C@H](CC(C)C)NC(=O)[C@@H](CCCCN)NC(=O)[C@H](CCCCN)NC(=O)[C@H](CC(C)C)NC(=O)[C@@H](CC(C)C)NC(=O)[C@H](CCCCN)NC(=O)[C@@H](N)CC(C)C)C(N)=O [Amp-1D] (H-LK[dL]LK[dK]L[dL][dK]KLL[dK]LL-NH2; N-terminus assumed)

- MIC (E. faecalis (ATCC #v583) [1]; ATCC #v583): 6 to 12.5 µg/mL
Compound: CCCCCCCCCCCCCCCC(=O)N[C@@H](CCCCN)C(=O)N[C@@H](CC(C)C)C(=O)N[C@@H](CC(C)C)C(=O)N[C@@H](CCCCN)C(N)=O [C16-KLLK] (Palmitoyl-KLLK-NH2)

- MIC (E. faecalis (ATCC #v583) [1]; ATCC #v583): 4 to 5 µg/mL
Compound: CCCCCCCCCCCCCCCC(=O)N[C@@H](CCCCN)C(=O)NCC(=O)NCC(=O)N[C@@H](CCCCN)C(N)=O [C16-KGGK] (Palmitoyl-KGGK-NH2)
- concentration causing complete growth inhibition (E. faecalis (ATCC #v583) [1]; planktonic E. faecalis, microdilution, 18–24 hrs): 5 µg/mL
- vitality of biofilm bacteria (live/dead stain, CLSM) (E. faecalis biofilm [2]): induced death in the biofilm bacteria
- growth of E. faecalis at sub-inhibitory concentrations (E. faecalis (ATCC #v583) [3]): accelerated
- ATP levels in biofilm (luminescence) (E. faecalis biofilm [4]): relatively low compared with that in the untreated control

- MIC (E. faecalis (ATCC #v583) [1]; ATCC #v583): 6 to 12.5 µg/mL
Compound: CCCCCCCCCCCCCCCC(=O)N[C@@H](CCCCN)C(=O)N[C@@H](CCCCN)C(=O)N[C@@H](CCCCN)C(N)=O [C16-KKK]
- anti-biofilm effect (biofilm mass, crystal violet, OD 595 nm) (E. faecalis biofilms): showed anti-biofilm activity

- MIC (E. faecalis (ATCC #v583) [1]; ATCC #v583): 12.5 to 25 µg/mL
Compound: CCCCCCCCCCCCCCCC(=O)N[C@@H](CCCCN)C(=O)N[C@@H](C)C(=O)N[C@@H](C)C(=O)N[C@@H](CCCCN)C(N)=O [C16-KAAK] (Palmitoyl-KAAK-NH2)
